Reference: patent publication US11813264B2, “PAR1 modulation to alter myelination” (Mayo Foundation for Medical Education and Research, priority 2014, dated 2023)

How the values were obtained:
[1] = system: primary oligodendrocyte cultures (3 DIV); test: ATP toxicity assay in oligodendrocytes; assay type: cell-based, mouse
Experimental: (§1) PAR agonist-induced changes in oligodendrocyte morphology: To determine the effects of recombinant Klk6, Klk1, thrombin, or PAR1-AP on oligodendroglia, 3 DIV PAR1^+/+, PAR1^−/−, and PAR2^−/− oligodendrocytes, PAR1^+/+ OPCs immediately post purification, or Oli-neu cells were grown on cover slips in the presence of agonists for 24 h. For ATP toxicity assays, oligodendrocytes were incubated with ATP (50 μM, Sigma Aldrich) in the presence of Klk6 or Klk1. Following each treatment, oligodendrocyte and OPC cultures were immunolabeled for O4 to visualize the cell body and processes. Oli-neu processes were visualized by staining the actin cytoskeleton with Cy3-conjugated Phalloidin.
(§2) To assess the effects of Klk6 and other PAR1 agonists on oligodendrocyte morphology and process stability, 20× digital micrographs were overlaid with a 780 μm^2 grid and ImageJ software 1.45r (National Institutes of Health) used to record cell number and the number of processes crossing horizontal grid lines (Scarisbrick et al., Brain 125:1283-1296, 2002). Data are expressed as the mean number of O4^+ or Phalloidin^+ processes per DAPI^+ cell (±SEM).
The extent of oligodendrocyte morphological differentiation was determined by scoring O4^+/DAPI^+ oligodendrocyte morphology as simple (only primary processes, no secondary branching), incomplete (one or more primary process without secondary branching), complete (all primary processes with secondary branching), or membrane (complete secondary branching with membrane sheets) (Huang et al., Nat Neurosci 14:45-53, 2011). The mean number of cells in each morphology class was determined across treatments and expressed as percent of total O4^+/DAPI^+ cells.
(§3) Changes in OPC or oligodendrocyte morphology were quantified from five microscopic fields per cover slip with the mean and SEM calculated across three cover slips per experiment. Each experiment was repeated at least twice using independent cultures. Analysis of oligodendrocyte morphology was performed without knowledge of treatment groups.

primary oligodendrocytes = test: Klk6-induced process retraction in primary oligodendrocytes (O4+ processes per cell); assay type: cell-based, mouse
Experimental: Oligodendrocyte Cultures: Purified cortical oligodendrocyte progenitor cells (OPCs) and differentiated oligodendrocytes were isolated from mixed glial cultures derived from postnatal day 1 mice (McCarthy and de Vellis, J Cell Blot 85:890-902, 1980). Glial cultures were grown in media containing DMEM, 2 mM Glutamax, 1 mM sodium pyruvate, 20 mM HEPES, and 10% heat-inactivated fetal calf serum (Atlanta Biologicals, Lawrenceville, GA). OPCs were isolated from 10 days-in-vitro (DIV) mixed glial cultures by overnight shaking and purified by differential adhesion. OPCs were seeded in defined Neurobasal A media containing 1% N2, 50 U/mL penicillin/streptomycin, 2 mM Glutamax, 1 mM sodium pyruvate, 0.45% glucose, and 50 μM β-mercaptoethanol (Sigma Aldrich, USA). OPCs were seeded at 3×10^4/cm^2 onto tissue culture plastic or 12 mm glass cover slips coated with poly-L-lysine (PLL, 10 μg/mL). After 24 h, cultures were 92-98% immunoreactive (IR) for sulfatide (O4) and by 72 hours at least 80% were also MBP-IR.
as §1, §2, §3

spinal cord white matter = test: Microinjection of Klk6 or PAR1-AP into spinal cord dorsal column white matter; assay type: in vivo, mouse
Experimental: In vivo effects of excess Klk6 or PAR1-AP in spinal cord white matter: All mice were administered Buprenorphine preoperatively (Buprenex, 0.03 mg/kg, intraperitoneal (i.p.), Reckitt Benckise, Slough, UK) and every 12 hours for the first 48 hours following surgery. Surgical anesthesia was induced in age-matched male C57BL6/J or PAR12/2 mice using Ketamine (Ketaset, 80 mg/kg, Fort Dodge Animal Health, Fort Dodge, IA) and Xylazine i.p. (Anased, 10 mg/kg, Lloyd Laboratories, Shenendoah, IA). A thoracic (T11-T12) laminectomy was performed and a 30-40 μm glass capillary needle inserted into a 10 μL gas-tight Hamilton Syringe (Hamilton Company, Reno, NV) used to deliver 2 μL of Klk6 (0.01 μg/μL (300 nM)), PAR1-AP (0.01 μg/μL (100 μM)), or vehicle (physiologic saline) alone (n=3 for each treatment group) using a stereotaxic injection system (Stoelting, Wood Dale, IL). Under micromanipulator control (MyNeurolab, Richmond, IL), the needle was inserted 350 μm into the dorsal column, infusion carried out over 5 minutes and the needle left in place for 3 minutes to avoid backflow. All mice received 0.5 mL of sterile saline and Baytril (2.5 mg/kg, Bayer Healthcare, Shawnee Mission, KS) i.p. postoperatively.
Seventy-two hours after microinjection of PAR1 agonists, mice were deeply anesthetized with Nembutal (50 mg/kg, i.p., Lundbeck, Deerfield, IL) and perfused transcardially with 4% PFA. Two millimeter transverse spinal cord segments encompassing the microinjection epicenter as well as 2 mm rostral and caudal were embedded in paraffin. Six micrometer sections were cut and slide mounted serially. Every sixth slide was stained with hematoxylin and eosin (H&E). Adjacent sections were immunostained for oligodendroglia using an antibody specific for CC-1/APC (ab16794, AbCam, Cambridge, MA), myelin using an antibody recognizing MBP (MAB386, Millipore, Bedford, MA), and standard avidin-biotin immunoperoxidase techniques (Scarisbrick et al., J Comp Neurol 431:347-361, 2001; and Scarisbrick et al. 2012b, supra). Stained sections were cover slipped with Permount (Fisher Scientific, Pittsburgh, PA) containing 2 mg/mL bisbenzamide to visualize nuclei (Sigma Aldrich).
Measurements of white matter lesion area were based on signs of pathology (vacuolation, tissue destruction, hemorrhage) in 20× digital images of H&E stained sections. The largest lesion area in each animal was used to determine mean maximal lesion area and expressed in μm^2. The integrity of MBP immunoreactivity was assessed in sections for 2,000 μm rostrocaudal to the microinjection site. The number of dorsal column CC-1^+/DAPI^+ cells was quantified in sections across […] of spinal cord extending rostrocaudal to the epicenter. The mean area of dorsal column white matter in the intact spinal cord was approximately […]. To put the number of CC-1^+ oligodendrocytes into context, the mean number CC-1V cells per mm^2 was evaluated as the mean number per […]. Sections stained for CC-1 were also stained for GFAP (Sigma Aldrich), allowing for the exclusion of CC-1^+ astrocytes; however, no examples of double labeled cells were observed.

[2] = co-application with ATP 50 μM, Klk6 150 nM

In the case of “Klk6: Recombinant murine kallikrein-related peptidase 6 expressed using a baculovirus system”, the ATP-induced oligodendrocyte loss ([1]; co-application with ATP) is reported as “significant exacerbation”, the “number of processes per oligodendrocyte” value ([1]; co-application with ATP 50 μM) is reported as “five-fold reduction” and the “oligodendrocytes with membrane morphology” value ([1]; co-application with ATP 50 μM) is reported as “complete loss”. The “oligodendroglia with mature complete morphology” value ([1]; co-application with ATP 50 μM) was “complete loss”, the “increase in oligodendrocytes with incomplete morphologies compared with vehicle or ATP alone” value [1, 2] was “greater than 40%” and the “percentage of oligodendrocytes with simple morphology relative to ATP alone” value [1, 2] was “further increasing”. For the same substance, the “oligodendrocyte process retraction compared with controls” value (primary oligodendrocytes; PAR1+/+ oligodendrocytes 3 DIV, 30 or 300 nM, 24 h) was “significant and statistically equivalent oligodendrocyte process retraction”, the “number of O4+ cells” value (primary oligodendrocytes; PAR1+/+, PAR1-/- or PAR2-/- cells) was “No significant differences” and the oligodendrocyte process retraction (primary oligodendrocytes; PAR1-/- oligodendrocytes, 30 or 300 nM) was “did not exhibit statistically significant process retraction”. The oligodendrocyte process retraction (primary oligodendrocytes; PAR2-/- oligodendrocytes, 30 or 300 nM) was “process retraction comparable to that seen in PAR1^+/+ cultures”, the “maximal lesion area relative to saline alone” value (spinal cord white matter; PAR1+/+ mice) was “enhanced” and the “reduction of CC-1+ cells in dorsal column white matter” value (spinal cord white matter; PAR1+/+ mice) was roughly 15%. For the same substance, the “rostrocaudal white matter pathology versus saline alone” value (spinal cord white matter; PAR1+/+ mice) was “two-fold greater”, the “loss of MBP-immunoreactivity relative to saline alone” value (spinal cord white matter; PAR1+/+ mice, 72 hours) was roughly 45% and the “white matter surrounding injection site with vacuolating myelinopathy, tissue destruction and hemorrhage” value (spinal cord white matter; PAR1+/+ mice, 0.02 μg total, 72 hours) was “over 1,200 μm”. For the same substance, the “rostrocaudal white matter pathology” value (spinal cord white matter; PAR1+/+ mice, 0.02 μg, 72 hours) was 1,242.0±95.3 μm and the white matter pathology (spinal cord white matter; PAR1-/- mice) was “largely absent”.
